Data: patent US20080280837A1, “Biologically Active Compounds with Anti-Angiogenic Properties” (priority 2004, published 2008)
“And” between values parts separate entries of the source, which are not always exact repeats. Equal values may be shown once. Read-outs that look alike come from different tables or passages of the source.

Columns and labels:
[1] = tested on: chicken embryo chorioallantoic membrane (CAM) vasculature; assay: Early chicken embryo chorioallantoic membrane (earlyCAM) assay; type: in vivo; settings: for Aretry length (pixels) / CAM increase (fold) / Relative artery length (absolute vessel length (pixels)/CAM area (pixels)) / Relative total vessel length (absolute vessel length (pixels)/CAM area (pixels)) / Relative vein length (absolute vessel length (pixels)/CAM area (pixels)) / Total vessel length (pixels) / Vein diameter (pixels) / Vein length (pixels): mean ± SEM, n = 8
Procedure: Vein diameter was included as a measure of vessel growth. Where there was more than one major vein branch, the diameters of both were added together to give a total vein diameter. In the control CAM there were two well developed vein branches of similar diameter. In contrast, in the treated CAM there was a single major vein branch. Total vein diameter is 239 pixels in the control CAM, and only 107 pixels in the treated CAM.
When “compound 1” was applied to the CAM, there were dose responsive reductions in CAM growth and vasculature. The effects on CAM growth and vessel parameters were expressed as pixel measures (Table 1) and also as a percentage of the vehicle treated control group (FIG. 1). Vein lengths were reduced at all dose levels of “compound 1”, both in pixel and percentage terms, with a reduction to 67% of control at 5 nmol (p<0.05). […] When artery and vein lengths were combined to give total vessel length there was a significant reduction at the 5 nmol level (FIG. 1; p<0.05). A strong trend to reduced CAM growth with increasing doses of “compound 1” was also present.

SSTR-2 = biological target: T1, SSTR-2 (Homo sapiens, UniProt P30874); assay: Radioligand binding screen against somatostatin subtype SSTR-2
T1 construct: expressed in transfected cells
Procedure: Receptor membrane preparations containing the desired cloned receptor (for example cloned human somatostatin receptor subtype 5, SSTR5) and radio-labeled ligand (for example 3-[^125I]iodotyrosyl^11 Somatostatin-14)) were diluted at the concentration required for testing and according to the specific parameters associated with the selected receptor-ligand combination, including receptor Bmax, ligand Kd and any other parameters necessary to optimize the experimental conditions. When tested for competition activity to the reference ligand, “compound 1” was mixed with membrane suspension and the radiolabeled reference ligand (with or without an excess of cold ligand to the receptor for determination of non-specific binding) and incubated at the temperature required by internal standard operating procedures. Following incubation, the binding reaction was stopped by the addition of ice-cold washing buffer and filtered on appropriate filters, which are then counted. Data analysis and curve-fitting was performed with XLfit (IDBS).
10 mM solutions of test compounds in 100% DMSO were prepared. ˜160 μl was used for each dilution (20 μl/well in triplicate).
A 1.25 mM assay stock was prepared by making a 1:8 dilution of the 10 mM solution. (To 30 μL of the 10 mM solution was added 210 μL milli-Q H2O. A 1:5 dilution series in milli-Q H2O was then prepared.
In primary screening experiments compounds were tested in duplicate for a particular concentration.

[2] = In vivo pharmacokinetic evaluation after i.v. and p.o. administration to rats; design: species or system rat; settings: for clearance: read-out: Cltotal (total plasma clearance); for Vd: read-out: VdB (volume of distribution during the elimination phase); for bioavailability: calculated using AUC0-480, read-out: BA (oral bioavailability)
Procedure: Intravenous infusion of “compound 1” (2 mg/Kg) over 5 minutes to two rats and arterial blood sampled up to 24 hours.
Oral administration of “compound 1” (25 mg/Kg as HPMC suspension) via oral gavage to two rats and arterial blood sampled up to 24 hours.
Plasma concentrations of “compound 1” determined by MS (LOQ<0.01 μM)
CLtotal=total plasma clearance after IV administration Vdβ=volume of distribution during the elimination phase after IV administration BA=oral bioavailability AUCIV=area under the plasma concentration versus time profile from time zero to infinity after IV administration AUCoral=area under the plasma concentration versus time profile from time zero to infinity after oral administration β=terminal elimination rate constant after IV administration

[3] = tested on: Human Umbilical Vein Endothelial Cells (HUVEC); assay: Endothelial cell proliferation assay (MTS); type: cell-based; settings: 48 hrs
Procedure: Human Umbilical Vein Endothelial Cells (HUVEC from Clonetics) were plated in 96 well plates at 1000 cell per well in EGM-2 medium (Clonetics). Cells were grown overnight at 37° C. in 5% CO2. Fresh EGM-2 medium containing compound at the desired concentration was added to the wells and the cells allowed to grow for a further 48 hrs. A MTS (Promega) colorimetric assay was performed after 48 hrs to determine cell growth according to the manufacturers instructions. Results are presented in terms of percentage growth.

[4] = rat, plasma, iv, 2 mg/Kg, IV, Mean ± SD of two rats
[5] = rat, plasma, iv, 2 mg/Kg, Rat 1, IV
[6] = rat, plasma, iv, 2 mg/Kg, Rat 2, IV

T1 sequence (P30874 whole entry): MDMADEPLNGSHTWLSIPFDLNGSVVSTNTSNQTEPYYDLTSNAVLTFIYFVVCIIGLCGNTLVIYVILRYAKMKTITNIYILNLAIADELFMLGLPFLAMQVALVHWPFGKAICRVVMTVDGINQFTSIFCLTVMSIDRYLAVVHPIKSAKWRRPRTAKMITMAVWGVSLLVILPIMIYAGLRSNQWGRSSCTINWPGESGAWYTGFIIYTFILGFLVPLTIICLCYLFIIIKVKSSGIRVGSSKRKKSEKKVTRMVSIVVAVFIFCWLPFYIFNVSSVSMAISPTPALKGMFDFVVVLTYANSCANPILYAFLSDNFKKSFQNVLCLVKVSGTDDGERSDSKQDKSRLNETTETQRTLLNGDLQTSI

## COC[C@H]1O[C@H](OCCc2ccccc2)[C@H](NC(=O)CCCN)[C@@H](OCc2ccc3ccccc3c2)[C@@H]1O [Compound 1]
[1]; 0.2 nmol
  Aretry length (pixels): 1870 ± 109^ pixels
  CAM increase (fold): 9.9 ± 0.9 fold
  Relative artery length (absolute vessel length (pixels)/CAM area (pixels)): 43.0 ± 3.7
  Relative total vessel length (absolute vessel length (pixels)/CAM area (pixels)): 79.9 ± 5.8
  Relative vein length (absolute vessel length (pixels)/CAM area (pixels)): 36.9 ± 3.4
  Total vessel length (pixels): 3498 ± 222^ pixels
  Vein diameter (pixels): 191 ± 10 pixels
  Vein length (pixels): 1628 ± 183^ pixels
[1]; 1 nmol
  Artery length as percentage of vehicle treated control (maximal reduction): 86 % of control
  Aretry length (pixels): 1544 ± 214^ pixels
  CAM increase (fold): 9.9 ± 0.8 fold
  Relative artery length (absolute vessel length (pixels)/CAM area (pixels)): 34.7 ± 4.7
  Relative total vessel length (absolute vessel length (pixels)/CAM area (pixels)): 71.3 ± 6.3
  Relative vein length (absolute vessel length (pixels)/CAM area (pixels)): 36.5 ± 2.4
  Total vessel length (pixels): 3169 ± 341^ pixels
  Vein diameter (pixels): 187 ± 15 pixels
  Vein length (pixels): 1625 ± 166^1 pixels
[1]; 5 nmol
  Reduction in vein diameter versus control: approximately 25%
  Aretry length (pixels): 1510 ± 196^ pixels
  CAM increase (fold): 8.9 ± 0.8 fold
  Relative artery length (absolute vessel length (pixels)/CAM area (pixels)): 36.4 ± 3.0
  Relative total vessel length (absolute vessel length (pixels)/CAM area (pixels)): 71.6 ± 3.7
  Relative vein length (absolute vessel length (pixels)/CAM area (pixels)): 35.1 ± 2.6
  Total vessel length (pixels): 2939 ± 292^1 pixels
  Vein length (pixels): 1429 ± 141^1 pixels
[1]; 5 nmol, p = 0.057
  Vein diameter (pixels): 157 pixels and 157 ± 23 pixels
[1]; 5 nmol, p<0.05
  Vein length as percentage of vehicle treated control: 67 % of control
[1]; single treated CAM (control CAM 239 pixels), dose not stated
  Total vein diameter: 107 pixels
SSTR-2; concentration required to displace 50% of the competitive radioligand, read-out: IC50 SSTR2
  IC50: 7.5 µM
SSTR-2; normalized IC50: lowest IC50 for a compound = 1
  selectivity SSTR2: 23.2
SSTR-2; slope of binding curve
  Hillslope SSTR2: 1.2
[2]; IV, Mean ± SD of two rats
  VdB (volume of distribution during the elimination phase): 3.29 ± 0.56 L/kg
[2]; Rat 4, PO 25 mg/Kg
  Tmax: 0.333 h
[2]; plasma, Rat 3, PO 25 mg/Kg, read-out: Tmax (converted)
  Tmax: 0.333 h
[2]; rat, plasma, 25 mg/Kg, PO, mean of two rats, read-out: Tmax (converted)
  Tmax: 0.333 h
[2]; [4]
  clearance: 8.2 mL/min/kg
  Vd: 3.3 L/kg
[2]; rat, plasma, iv, 2 mg/Kg, IV, Mean ± SD of two rats, read-out: t1/2 (elimination half-life) (converted)
  half-life: ~4.6 h
[2]; rat, plasma, iv, 2 mg/Kg, Mean ± SD of two rats
  Cmax: 31.9 ± 2.27 µM
[2]; rat, plasma, iv, 2 mg/Kg, Rat 1, IV infusion 2 mg/Kg over 5 minutes
  Cmax: 30.3 µM
[2]; [5]
  clearance: 7.53 mL/min/kg
  Vd: 2.9 L/kg
[2]; rat, plasma, iv, 2 mg/Kg, Rat 1, IV, read-out: t1/2 (converted)
  half-life: 4.45 h
[2]; rat, plasma, iv, 2 mg/Kg, Rat 2, IV infusion 2 mg/Kg over 5 minutes
  Cmax: 33.5 µM
[2]; [6]
  clearance: 8.86 mL/min/kg
  Vd: 3.69 L/kg
[2]; rat, plasma, iv, 2 mg/Kg, Rat 2, IV, read-out: t1/2 (converted)
  half-life: 4.76 h
[2]; rat, plasma, po, 25 mg/Kg, Mean ± SD of two rats
  Cmax: 4.95 ± 2.84 µM
[2]; rat, plasma, po, 25 mg/Kg, PO, Mean ± SD of two rats
  bioavailability: ~5.2%
[2]; rat, plasma, po, 25 mg/Kg, Rat 4, PO
  bioavailability: 5.38%
[2]; rat, plasma, po, 25 mg/kg, Rat 3, PO 25 mg/Kg HPMC suspension
  Cmax: 6.95 µM
[2]; rat, plasma, po, 25 mg/kg, Rat 4, PO 25 mg/Kg HPMC suspension
  Cmax: 2.94 µM
[3]; 125 uM
  Percent cell growth at 125 µM: 69%
[3]; 250 uM
  Percent cell growth at 250 µM: 17%
